Test results as given in patent US3937838A, “Orally active bronchospasmolytic compounds and their preparation” (priority 1966, dated 1976).
Entries after “also recorded” stand apart in the source; their conditions may differ. Where two headings read alike, the source gives them in different places.

Tests used:
[1] = system: sphincter of Oddi (choledochoduodenal sphincter); test: Effect on sphincter of Oddi (Example 5e); type: in vivo, cat; conditions: anesthetized cats; for duodenal pressure / motility / heart rate: concurrent with sphincter effect; for common bile duct pressure / sphincter relaxation: i.v., 1 μg/kg terbutaline in FIG. 7, FIG. 8
Description: The effect of terbutaline on the choledochoduodenal sphincter of young, healthy cats was studied. Young animals weighing at least 2.0 kg were used. After being deprived of food but not water for 24 hours, they were anesthetized with pentobarbitol (40 mg/kg i.p.). The terminal portion of a common bile duct was isolated and cannulated toward the duodenum. The hepatic part of the bile duct was drained to prevent distention. The pressure was continuously recorded by the open tip technique. Details of the experimental set up have been published by Liedberg and Halabi [Acta. Chir. Scand. 136 (1970) page 208.] Heart rate was recorded on all experiments and blood pressure by arterial cannulation in some.
Referring to the upper curve of FIGS. 7 and 8, the heart rate is continuously recorded. Concurrent records are made in the middle curve and lower curve of the pressures measured respectively in the common bile duct and in the lower duodenum.
As a control in this test, the animal was also treated with 0.5 international units per kg of cholecystokinin (CCK).
In a second test of the effect of terbutaline and isoprenaline on the sphincter (see FIG. 8), the duodenal motility was measured without being affected by CCK.

[2] = system: right auricle from the guinea pig; test: Dual preparation test in vitro, effect on auricle (Example 5c); conditions: slow infusion, FIGS. 2-4; for cardiac stimulation in relation to bronchodilator effect: both preparations in same bath
Description: [This procedure is more fully described below in Example 5 (b)].
FIG. 2 illustrates the effect of epinephrine (EPE) and terbutaline on spirally cut trachea and right auricle from the guinea pig. Both preparations are dissected out from the same animal and run under identical experimental conditions;
Both preparations are dissected out from the same animal, and run under identical experimental conditions;
Both preparations are dissected out from the same animal and run under identical experimental conditions;
The relation between the heart stimulatory effect and bronchodilator effect was studied in vitro on auricle-trachea-preparation from the guinea pig in order to compare the effect on the heart and the effect on the bronchial muscle under identical experimental conditions. Both spontaneously bearing auricle and spirally-cut trachea were placed in the same bath in Krebs solution. Both preparations were taken from the same animal.
The compound to be tested was slowly infused into the bathing solution and the tension was measured for each of the auricle and trachael preparations.
In carrying out this dual preparation test, epinephrine was used as a reference. […] Infusion of epinephrine was made over a period of ten minutes. After washing and recovery, the test solution was infused in the same manner and the effect of the test compound was compared with the effect of epinephrine.
Referring more specifically to FIG. 2, the upper portion of each chart thereof represents the tension continuously recorded of the auricle preparation (shaded area 1 for the effect of epinephrine on the auricle, ref. no. 2 for the effect of terbutaline infused at a rate of 0.2 μg/min on the auricle, and ref. no. 3 for the effect of terbutaline infused at a rate of 0.375μg/min on the auricle).

adrenergic receptors = conditions: cited from earlier work
isolated rabbit heart = test: Effect on isolated heart, Langendorff preparation (Example 5d); conditions: injection; FIG. 5
Description: The effect of the compound of the present invention was also studied on isolated rabbit heart (Langendorff preparation) the method used as described by Anden et al. (Acta Pharmacol. et Toxicol., 21 (1964) page 247). In this procedure, the isolated heart is mounted in a Krebs solution and the test compound is injected into it. Measurements are continuously recorded of the rate and force of contraction.
The tests using epinephrine establish a standard of comparison to evaluate subsequent test compounds in the same preparation.

bronchial asthma = test: Clinical study in asthmatic patients (Example 6); type: in vivo, human
Description: All the patients were hospitalized for severe bronchial asthma. Before the patients were selected for the trial, spirometry was performed before and after isoprenaline inhalations to make sure that their obstruction was at least partly reversible by bronchodilating drugs. The tests were performed when the patients were in a relatively steady state of moderate asthmatic discomfort. Every morning during the trial control measurements of forced expiratory volume in one second (FEV1.0) were made. These values had to be less than 70% of the predicted normal value taking in consideration sex, age and heights. All the patients were under treatment of different drugs for their asthma. Other bronchodilating drugs were withdrawn at least 6 hours before the start of the measurements. Most of the patients were treated with steroids, antibiotics and expectorants before the start of the trial. This regimen was continued unchanged during the trial period.
Twenty-four took part in the study, 10 male and 14 female. Average age was 51 years (range 15-71 years), mean body weight 64 kg (range 44-88 kg.) and height 166 cm (range 150-187 cm).
The trial was performed as a double blind study during three consecutive days with the patients serving as their own control. […] The order of treatment was randomized according to the principle of Latin squares.
Lung function tests were made immediately before the administration of the tablets and after 1, 2, 3, 5 and 7 hours. FEV1.0 was measured using a Vitalograph spirometer. The highest value of three measurements on each occasion was used in the calculations. All the patients had been trained to perform the tests the day before the start of the trial. After 3 and 7 hours, the patients were questioned for side effects. The same, specially trained, nurse assisted throughout the whole investigation.
The "Student's" t-test was used for statistical evaluation of the results. The degree of significance for the differences is given as almost significant (p<0.05^x) significant (p<0.01^xx) and highly significant (p<0.001^xxx).

[3] = system: bronchoconstriction by histamine aerosol; test: Protecting effect against histamine aerosol in guinea pigs (Example 15); type: in vivo, guinea pig; conditions: Cavia porcellus, read-out: ED50 (protecting 50 percent of the animals for more than 4 minutes)
Description: Male guinea pigs (200--300 g) were used. Bronchoconstriction was produced by letting the animals inhale a histamine aerosol.

mice = test: Toxicity study in mice (Example 18); type: in vivo; conditions: mouse, in vivo, po
Description: (§1) The toxicity was studied in mice (NMRI, male, 18-28 g) 24 hours after i.v. and oral administration. The animals were observed during five days. No further deaths occurred.

[4] = Toxicity study in mice (Example 18); type: in vivo; conditions: mouse, in vivo, read-out: LD 50 + Standard error
Description: as §1

guinea pig trachea = test: Bronchospasmolytic effect in vitro (Example 13); conditions: per se
Description: The trachea from a guinea pig was dissected out and spirally cut. It was mounted in a water-jacketed bath (37°C.) in Krebs solution and aerated with oxygen (95%) and carbon dioxide (5%). Pilocarpine (2 μg/ml) was added. The load was adjusted to about 2 g and relaxations in the trachea were recorded by means of a Grass force displacement transducer and a Grass polygraph model 5 (see Example 5 above). The cumulative method was used (-)-Epinephrine was used as reference. The comparisons presented in Table 7 are based on ED50 -values.

[5] = system: isolated guinea pig heart; test: Effect on isolated heart from guinea pig, Langendorff (Example 16); conditions: per se
Description: The isolated guinea pig heart was perfused according to Langendorff. The method used is described by Anden et al. [Acta Pharmacol. et Toxicol. 21, 247, (1964)]. Contractions in the heart were recorded by a force displacement transducer and a Grass polygraph model 5. The recovery of the heart was tested with (-) epinephrine between every dose of the substance tested. Terbutaline was used as reference.

Compound: CC(C)NCC(O)c1ccc(O)c(O)c1 (stereo not shown) [isoprenaline, 1-(3',4'-dihydroxyphenyl)-2-(isopropylamino)-ethanol, reference compound]
- duodenal pressure / motility [1]: inhibited duodenal motility
- heart rate [1]: marked tachycardia
- duodenal pressure / motility ([1]; listed as Isoprenaline): differed markedly from terbutaline in its effect on heart rate and intestinal activity
- heart rate ([1]; listed as Isoprenaline): differed markedly from terbutaline in its effect on heart rate and intestinal activity
- common bile duct pressure / sphincter relaxation [1]: reduces common bile duct pressure
- cardiac stimulation in relation to bronchodilator effect [2]: strong cardiac stimulants in relation to their bronchodilator effect
- adrenergic receptors stimulated (adrenergic receptors; background): stimulates β1 and β2 -receptors equally
- duration of bronchodilator activity (adrenergic receptors; background): relatively short-lived
- cardiovascular side effects (adrenergic receptors): cardiovascular stimulation, especially tachycardia

Compound: CNCC(O)c1ccc(O)c(O)c1 (stereo not shown) [epinephrine, 1-(3',4'-dihydroxyphenyl)-2-(methylamino)-ethanol]
- effect on rate and force of isolated heart (isolated rabbit heart): increase in the heart rate; also recorded: increase in the force of contraction; also recorded: readily observable
- cardiac stimulation in relation to bronchodilator effect [2]: affecting both the auricle and tracheal preparations over the concentration range tested
- cardiac stimulation in relation to bronchodilator effect ([2]; listed as Epinephrine): bronchodilation and heart muscle stimulation in the same concentration range
- effect on auricle (tension) ([2]; 0.375 μg/min where stated): nearly doubled the maximum tension of the auricle
- adrenergic receptors stimulated (adrenergic receptors; background): stimulates α- and β1 - as well as β2 -receptors
- cardiovascular side effects (adrenergic receptors; background): tachycardia, increased cardiac output and sometimes an increase in blood pressure
- duration of bronchodilator activity (adrenergic receptors; background): relatively short-lived

Compound: CC(C)NCC(O)c1cc(O)cc(O)c1 (stereo not shown) [orciprenaline, 1-(3',5'-dihydroxyphenyl)-2-(isopropylamino)-ethanol, reference compound]
- time of maximal response (FEV1.0) (bronchial asthma; oral single dose): 2 h
- increase of FEV1.0 (bronchial asthma; oral, terbutaline 5.0 mg, orciprenaline 20 mg, FIG. 9): clearcut increase of the spirometric values
- cardiac stimulation in relation to bronchodilator effect [2]: strong cardiac stimulants in relation to their bronchodilator effect
- bronchodilator potency (adrenergic receptors; background, versus previously used bronchodilators): less potency than previously used bronchodilators

Compound: CC(C)(C)NCC(O)c1cc(OC(=O)C(C)(C)C)cc(OC(=O)C(C)(C)C)c1 (stereo not shown) [KWD2085]
- ED50 ([3]; 0.5 h, oral, 30 minutes before histamine): 0.24 mg/kg
- ED50 ([3]; ip, 0.25 h, i.p., 15 minutes before histamine): 0.13 mg/kg
- oral absorption in comparison with terbutaline (mice): improved oral absorption in comparison with terbutaline
- LD50 at 24 h ([4]; iv): 23 ± 2 mg/kg
- LD50 at 24 h ([4]; po): 2200 mg/kg
- bronchospasmolytic effect in vitro relative to terbutaline (guinea pig trachea): weaker bronchospasmolytic effect in vitro than terbutaline
- direct heart effect relative to terbutaline [5]: much less direct heart effect

Compound: cholecystokinin [reference compound]
- duodenal pressure / motility [1]: markedly stimulated the duodenum
- common bile duct pressure / sphincter relaxation [1]: relaxed the sphincter

Compound: CNC(C)C(O)c1ccccc1 (stereo not shown) [Ephedrine, 1-phenyl-2-(methylamino)propanol]
- cardiovascular side effects (adrenergic receptors; background): palpitations and tachycardia
- CNS side effects (adrenergic receptors; background, oral): anxiety and sleeping disturbances
